Here are results for two compounds from patent US20250215052A1, “INHIBITORS OF PICK1 AND USES THEREOF” (University of Copenhagen, priority 2018, published 2025).

Data set [1] concerns the target T1, PICK1 pre-bound to TacDAT C24 (Rattus norvegicus, UniProt Q9EP80).
T1 construct: Partner: transfected HEK293-GT cells, ruptured into membrane sheets
Description: SCMS dissociation of pre-bound PICK1. The settings on record: pre-bound PICK1 on TacDAT C24 SCMS. The class given is binding. As to the method:
Human Embryo Kidney 293 GripTite cells (HEK293-GT) for SCMS were grown i in Dulbecco's modified Eagle's medium 1965 with fetal calf serum and pen-strep antibiotics. Cells were transfected using TAC-YFP-DATC24 DNA (pEYFP-C1 vector) and lipovectamin in opti-MEM® overnight. Cells were washed once with PBS and detached using 0.5% Trypsin with EDTA. Cells were then seeded into 6-well plates and allowed to grow and attach overnight at 37° C. in humidified 10% CO2 atmosphere.
The SCMS was prepared as described in (Perez et al., 2006). In brief, round cover glasses were plasma cleaned and coated with 0.3 mM poly-L-ornithine hydrobromide (Poly-ORN) for 30 min. The coating Poly-ORN was then removed. Seeded and transfected cells were then washed twice to allow them to swell. The swelled cells were then covered with the cover glass with the Poly-ORN coated side facing down on the cells. Dynamic pressure was manually applied to the cover glass using the piston from a 12 ml plastic syringe for a total of 1 min. The force from removing the cover glass causes some cells to rupture and leave a SCMS on the surface of the cover glass. […] A protein solution was then added to the cover glass and left to incubate for the desired amount of time depending on the experiment. […] The protein: peptide solution was then added to the SCMS-cover glass and incubated for 2 hours. […]

A short description of the next data set: Plasma stability. In kind it is in vitro ADME. The settings on record: human, 37° C., 24 h incubation. How it is done: (§1) 360 μL undiluted human male serum (Sigma; H4522) or PBS was kept at 37° C. for 15 min, followed by addition of 40 μL (500 uM) of relevant peptide and subsequent incubation at 37° C. For stability analysis, 45 μL samples was taken out at t=0 min and t=24 hrs, and samples quenched by addition of 50 μL 6M urea followed by incubation at 37° C. for additional 30 min. 50 μL 20% TCA (W7V) in acetone was added to each sample before incubation for at least 16 hrs at 5° C. Samples were centrifuged at 14.000×g for 30 min and supernatants collected and filtered using a 0.22 μm syringe filter. Samples were analyzed on an Acquity UPLC H-Class instrument using a C18 column with a 15 min 10-80% […] gradient. Remaining analyte (%) was calculated as the area under curve (AUC) of the main peak at indicated time points relative to the sample at t=0 min.

The nature of another data set: PBS stability. The class given is physicochemical. The settings on record: 37° C., 24 hrs. How it is done:
as §1

Another data set has as its system PICK1. Description: Peptide accumulation in striatal neurons with PICK1 knock down or replacement. The class given is cell-based, rat. Particulars: 5 nM, 1 hour. An excerpt: For shRNA-mediated knock down and replacement studies of PICK1, striatal neurons were transduced at 14 DIV with three different lentivirus; FUGWH1sh18GFPPICK1 (GFP-PICK1WT), FUGWH1sh18eGFP (GFP-sh18) or FUGWH1sh18deleGFP (GFP). The replacement plasmid GFP-PICK1WT expresses a short hairpin (sh18) that targets endogenous PICK1 and a resistant eGFP tagged PICK1. The GFP control vector (GFP) was created by removing the short hairpin (Holst et al., 2013, Jensen et al., 2018). Lentiviruses were produced as described previously (Rasmussen et al., 2009).
Neurons were rinsed in PBS and blocked in 0.05% Triton-X100 with 5% goat serum for 20 min-at room temperature. Subsequently, neurons were labelled with rabbit anti-DARRP32 (1:800) and chicken anti-GFP (1:2000) for 1 hour at room temperature, before incubation with 1:500 goat anti-rabbit Alexa-647 and goat anti-chicken Alexa-488 secondary antibodies.
Images for quantification of peptide were acquired with a Zeiss LSM 710 laser-scanning microscopy. Quantification of the TMR-TAT-P4-(C5)2 intensity was performed by defining each neuron as a region of interest. The mean intensity values obtained from each neuron were subsequently normalized to the average of the intensity values of the GFP transduced neurons

T1 sequence (Q9EP80 whole entry): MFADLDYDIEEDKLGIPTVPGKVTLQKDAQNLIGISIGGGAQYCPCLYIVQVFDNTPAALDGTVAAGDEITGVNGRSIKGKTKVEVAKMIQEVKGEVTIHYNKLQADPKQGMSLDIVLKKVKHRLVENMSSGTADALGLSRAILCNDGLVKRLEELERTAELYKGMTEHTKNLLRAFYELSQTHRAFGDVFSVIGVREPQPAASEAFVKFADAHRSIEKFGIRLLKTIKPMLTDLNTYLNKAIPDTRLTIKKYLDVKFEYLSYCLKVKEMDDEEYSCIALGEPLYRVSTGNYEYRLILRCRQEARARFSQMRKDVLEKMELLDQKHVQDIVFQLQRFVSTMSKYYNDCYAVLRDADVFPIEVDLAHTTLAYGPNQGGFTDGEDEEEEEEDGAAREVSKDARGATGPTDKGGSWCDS

In the case of `CC(C)C[C@H](NC(=O)[C@H](Cc1c[nH]c2ccccc12)NC(=O)[C@@H](N)Cc1cnc[nH]1)C(=O)N[C@@H](CCCCN)C(=O)N[C@H](C(=O)O)C(C)C` [C5, HWLKV], in data set [1], the “dissociation of pre-bound PICK1 from SCMSs” value was “neither C5 nor TAT-(C5) could significantly dissociated PICK1 from SCMSs”. Besides, in “Plasma stability”, the plasma stability result is “full degradation”. Also, the “stability in PBS” value in the data set “PBS stability” is “good stability in PBS”.
As for “TAMRA-YGRKKRRQRRR-PEG4-(HWLKV)2 [TMR-TAT-P4-(C5)2]”, in the data set on PICK1, the “peptide signal in sh18 + GFP-PICK1 neurons vs control (GFP)” value is reported as “significantly increased”.
